IC50 data for one molecule are collected here from publication PMC9385451 (International Journal for Parasitology: Drugs and Drug …, 2022).

For the experiment, the target named is T1, Eimeria tenella aldolase 2 (EtALD2), fructose-1,6-bisphosphate aldolase (Eimeria tenella, UniProt U6KYI1).
T1 sequence (U6KYI1 1-368): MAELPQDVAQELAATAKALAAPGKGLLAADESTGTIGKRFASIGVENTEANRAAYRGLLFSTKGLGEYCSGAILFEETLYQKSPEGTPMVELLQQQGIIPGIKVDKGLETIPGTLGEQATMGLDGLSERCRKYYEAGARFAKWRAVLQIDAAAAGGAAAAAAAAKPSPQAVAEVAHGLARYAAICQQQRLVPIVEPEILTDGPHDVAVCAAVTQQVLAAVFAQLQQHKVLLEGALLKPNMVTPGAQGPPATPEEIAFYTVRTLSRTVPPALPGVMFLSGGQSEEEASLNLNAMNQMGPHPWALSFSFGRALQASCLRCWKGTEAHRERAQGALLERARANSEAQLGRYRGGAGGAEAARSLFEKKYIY
Type of experiment: biochemical.

Each structure is given as a SMILES string.

For the molecule `O=c1c(O)c(-c2ccc(O)cc2O)oc2cc(O)cc(O)c12` [morin], the IC50 was determined as 10.4 µM.

Broadly, the IC50 is the concentration at which inhibition is half-maximal.
